According to PubChem BioAssay AID2060912 (Molecular Pharmacology Branch, DTP, NCI, 2025):

System: HUVEC/MSC spheroids viability
Experiment: Human HUVEC/MSC cell line growth inhibition [KRAS2];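 on viability, T/C: percent of DMSO vehicle control luminescence so 100% = untreated viability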
Conditions: for IC50: curve of first compound; for viability, T/C: stronger effect = lower value
Outline: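 Spheroids of pooled-donor HUVEC and hMSC (passage ≤5) without tumour cells were treated with KRAS-pathway inhibitors alone and combined with targeted agents. Top concentration was at or near clinical Cmax, or 10 microM when Cmax was unknown, descending in half-log steps.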

CC(C)n1nc(-c2ccc3oc(N)nc3c2)c2c(N)ncnc21 + COc1cc2nc(C)nc(NC(C)c3cc(N)cc(C(F)(F)F)c3)c2cc1OC1CCOC1
IC50 (second compound 0.0316 µM): 3.01 nM | IC50 (second compound 0.1 µM): 6.81 nM | IC50 (second compound 0.316 µM): 2.94 nM | IC50 (second compound 1 µM): 2.8 nM | IC50 (second compound 3.16 µM): 2.49 nM | IC50 (second compound 10 µM): 5.16 nM | viability, T/C (second compound 0.0316 µM, first compound 0.000316 µM): 78.9% | viability, T/C (second compound 0.0316 µM, first compound 0.001 µM): 80.2% | viability, T/C (second compound 0.0316 µM, first compound 0.00316 µM): 48.5% | viability, T/C (second compound 0.0316 µM, first compound 0.01 µM): 53% | viability, T/C (second compound 0.0316 µM, first compound 0.0316 µM): 49.2% | viability, T/C (second compound 0.0316 µM, first compound 0.1 µM): 44% | viability, T/C (second compound 0.1 µM, first compound 0.000316 µM): 82.9% | viability, T/C (second compound 0.1 µM, first compound 0.001 µM): 61.5% | viability, T/C (second compound 0.1 µM, first compound 0.00316 µM): 55.5% | viability, T/C (second compound 0.1 µM, first compound 0.01 µM): 46.5% | viability, T/C (second compound 0.1 µM, first compound 0.0316 µM): 50.5% | viability, T/C (second compound 0.1 µM, first compound 0.1 µM): 39.6% | viability, T/C (second compound 0.316 µM, first compound 0.000316 µM): 79.8% | viability, T/C (second compound 0.316 µM, first compound 0.001 µM): 76.2% | viability, T/C (second compound 0.316 µM, first compound 0.00316 µM): 48.2% | viability, T/C (second compound 0.316 µM, first compound 0.01 µM): 41.1% | viability, T/C (second compound 0.316 µM, first compound 0.0316 µM): 46.1% | viability, T/C (second compound 0.316 µM, first compound 0.1 µM): 39% | viability, T/C (second compound 1 µM, first compound 0.000316 µM): 76% | viability, T/C (second compound 1 µM, first compound 0.001 µM): 67.2% | viability, T/C (second compound 1 µM, first compound 0.00316 µM): 49.3% | viability, T/C (second compound 1 µM, first compound 0.01 µM): 34.5% | viability, T/C (second compound 1 µM, first compound 0.0316 µM): 51% | viability, T/C (second compound 1 µM, first compound 0.1 µM): 37.7% | viability, T/C (second compound 3.16 µM, first compound 0.000316 µM): 77% | viability, T/C (second compound 3.16 µM, first compound 0.001 µM): 71.8% | viability, T/C (second compound 3.16 µM, first compound 0.00316 µM): 44.2% | viability, T/C (second compound 3.16 µM, first compound 0.01 µM): 41.7% | viability, T/C (second compound 3.16 µM, first compound 0.0316 µM): 41.8% | viability, T/C (second compound 3.16 µM, first compound 0.1 µM): 43.1% | viability, T/C (second compound 10 µM, first compound 0.000316 µM): 62.7% | viability, T/C (second compound 10 µM, first compound 0.001 µM): 61% | viability, T/C (second compound 10 µM, first compound 0.00316 µM): 59.3% | viability, T/C (second compound 10 µM, first compound 0.01 µM): 33.7% | viability, T/C (second compound 10 µM, first compound 0.0316 µM): 41.2% | viability, T/C (second compound 10 µM, first compound 0.1 µM): 37.4%
